Test results taken from US4529602A, “Method for treatment or prophylaxis of gastro-intestinal disease” (priority 1981, dated 1985).
Counter-ions that a name gives are not always drawn. One block for each molecule: values may come before it.

What was measured:
Shay rat ulcers = assay: Effect on Shay rat ulcers (pylorus-ligated); format: in vivo, Male SD-strain rats; settings: 17 h
Experimental: Male SD-strain rats (6 to 7 weeks old) were starved for 48 hours and then the pylori were ligated. Immediately after ligation, a solution or suspension of a test compound in distilled water was administered orally into the stomachs in an amount of 0.2 ml per 100 g of body weight (Dose: 200 or 300 mg/kg). Seventeen hours after the administration of the test compound, the degree of ulceration in forestomach was examined according to the method of Takagi et al (Chem. Pharm. Bull., 11(10), pp. 1282-1290 (1963)) with a modified scoring system. Depending on the diameter of each lesions, the ulcers were classified into the following 4 grades. Ulcer index was calculated by the sum of the number of ulcers in each degree multiplied by respective ulcer score. Further, based on the ulcer index determined above, the preventive effect of the test compound on Shay rat ulcer was calculated by the following formula: [formula] (Results)

urinary electrolytes [1] = assay: Effect on urine volume and urinary electrolytes (Experiment 7); format: in vivo, Male SD-strain rats; settings: 50 mg/kg oral
Experimental: Male SD-strain rats (6 to 7 weeks old) were starved overnight, and a physiological saline solution (3 ml/100 g of body weight) was orally administered to the rats. One hour later, a solution or suspension of a test compound in a 0.25% CMC-physiological saline solution was administered orally to the rats in an amount of 3 ml per 100 g of body weight (Dose: 50 and 500 mg/kg). Immediately after administration of the test compound, the rats were placed into metabolic cages (2 rats per cage) and deprived of water and food for 5 hours. The urine samples which were excreted during a 5 hour period were collected. Sodium and potassium in the urine were estimated by a flame photometer (Hitachi Model-205).

urinary electrolytes [2] = assay: Effect on urinary electrolytes (Experiment 8); format: in vivo, Male SD-strain rats; settings: for Urine volume: 4 h, control 5.7 ± 0.6; for Na/K ratio: 4 h urine, control 6.1 ± 0.3
Experimental: Male SD-strain rats (6 to 7 weeks old, one group: 5-8 rats) were starved overnight, and a physiological saline solution (3 ml/100 g of body weight) was orally administered to the rats. One hour later, a solution of a test compound in a 0.25% CMC-physiological saline solution was administered orally to the rats in an amount of 3 ml per 100 g of body weight (Dose: 50, 500 or 1,000 mg/kg). Immediately after administration of the test compound, the rats were placed into metabolic cages (one rat per cage) and deprived of water and food for 4 hours. The urine samples which were excreted during a 4 hour period were collected. Sodium and potassium in the urine were estimated by a flame photometer (Hitachi Model-205).

[3] = test system: experimentally-induced gastric ulceration; settings: in words, known; cited from earlier work
human gastric ulcer = settings: in words, numerous clinical trials; cited from earlier work
[4] = test system: mineralo-corticoid- or aldosterone-like effect; settings: in vivo; cited from earlier work
pepsin secretion = assay: Preventive effect on pepsin secretion in pylorus-ligated rats; format: in vivo, Male SD-strain rats; settings: 100 mg/kg oral, 5 h after administration, hydrate
Experimental: (§1) Preventive effect on acid and pepsin secretions
(§2) Male SD-strain rats (6 to 7 weeks old) were starved for 48 hours, and then the pylori were ligated. Immediately after ligation, a solution or suspension of a test compound in distilled water was administered orally into the stomachs in an amount of 0.2 ml per 100 g of body weight (Dose: 100 mg/kg). Five hours after said administration of the test compound, the rats were sacrificed and the stomachs were removed. The gastric contents were centrifuged at 2,500 rpm for 10 minutes and the gastric juice was collected as the supernatant. The concentration of pepsin in the gastric juice was determined by Anson's method (c.f., J. Gen. Physiol., 22, pp. 77-89 (1938)) using hemoglobin as the substrate, and the preventive effect of the test compound on the pepsin secretion was estimated in terms of "decrease in pepsin concentration" according to the following formula: [formula]

gastric acid secretion = assay: Preventive effect on gastric acid secretion in pylorus-ligated rats; format: in vivo, Male SD-strain rats; settings: 100 mg/kg oral, 5 h after administration, hydrate
Experimental: as §1, §2
On the other hand, the concentration of free acid in the gastric juice was determined by titrating said gastric juice to pH 7.0 with 0.1N NaOH, and the preventive effect of the test compound on the gastric acid secretion was estimated in terms of "the decrease in acidity of gastric juice" according to the following formula: [formula] (Results)

stress-induced ulcers = assay: Effect on stress-induced ulcers; format: in vivo, Male ddY-strain mice; settings: 100 mg/kg oral, 16 h water immersion
Experimental: Male ddY-strain mice (4 weeks old) weighing about 20 g were starved for about 7 hours. A solution of a test compound in distilled water was administered orally to the mice in an amount of 0.1 ml per 10 g of body weight (Dose: 100 mg/kg). Immediately after administration of the test compound, the mice were placed in a stress cage and immersed to the level of the cervix in a water bath (24±0.5° C.) for 16 hours. Then, the stomach was removed and slightly inflated by injecting 1.2 ml of a 1% formalin solution to fix the inner layers of the gastric walls. The stomach was then incised along the greater carvature, and the number of ulcerations was examined.

aspirin-induced ulcers = assay: Effect on aspirin-induced ulcers; format: in vivo, Male Donryu-strain rats; settings: p.o. 2 m mol./kg (847 mg/kg); aspirin 200 mg/kg
Experimental: Male Donryu-strain rats (8 to 9 weeks old) were starved overnight, and a solution or suspension of a test compound in distilled water was administered orally into the stomachs in an amount of one ml per 100 g of body weight. Half an hour later, a suspension of aspirin in 0.25% CMC solution was administered orally to the rats in an amount of 0.5 ml per 100 g of body weight (Dose: 200 mg/kg). Four hours after the administration of aspirin, the rats were sacrificed and the stomachs were removed and inflated by injecting 10 ml of 1% formalin solution to fix the inner layers of the gastric walls. The stomach was then incised along the greater curvature and the lengths of the lesions were measured and summated to give ulcer index (in mm) for each animal. The preventive effect of the test compound on aspirin-induced ulcers were calculated by the following formula: [formula] (Results)

gastric mucus secretion = assay: Effect on gastric mucus secretion (alcian blue binding); format: in vivo, Male Sprague-Dawley rats; settings: 100 mg/kg oral, 1 h, hydrate
Experimental: Stimulating effect of a test compound on gastric mucus secretion was examined by the method of Corne et al. (J. Physiol., 242, pp. 116-117(1974); J. Pharm. Pharmacol., 33, pp. 348-352(1981)). Male Sprague-Dawley rats (6-7 weeks old; one group: 6 rats) were fasted for 20 hours before the experiments. Water was given ad libitum and coprophagy was prevented by using cages with wide-mesh floors. A test compound dissolved or suspended in distilled water was administered orally to the rats at a dose of 100 mg/kg. One hour after the administration of the test compound, the stomachs were dissected, opened along the greater curvature, rinsed in ice-cold 0.25M sucrose, and the rumen was discarded. Then, the stomachs were incubated in 10 ml of a 0.15M sucrose-0.05M sodium acetate solution (pH 5.8) containing alcian blue (1 mg/ml), at room temperature for 1.5 hours. Finally, the stomachs were placed in 15 ml of a 0.5M magnesium chloride solution for 2 hours with occasional shaking and then removed, and the magnesium chloride solution was shaken briefly with 10 ml of diethyl ether. The optical density of the aqueous layer was read at 605 nm, and the degree of alcian blue binding was expressed as μg alcian blue/g of tissue. The stimulating effect of the test compound on gastric mucus secretion was estimated in terms of "the increase in alcian blue binding" which was calculated by the following formula: [formula] (Results)

gastric mucous membrane = assay: Protective effect on gastric mucous membrane (excised stomach in artificial gastric juice); set-up: species or system Male Sprague-Dawley rats; settings: 37° C., 60 min, hydrate; for Amount of tyrosine: control 2.42 ± 0.15
Experimental: Protective effect of a test compound on gastric mucous membrane was examined by the method of Diago et al. (Yakugaku Zasshi, 101, 452-457(1981)). Male Sprague-Dawley rats (6-7 weeks old; one group: 5 rats) were fasted for 20 hours before the experiments. Water was given ad libitum and coprophagy was prevented by using cages with wide-mesh floors. The stomach was excised, opened along the greater curvature, rinsed in physiological saline solution, and the rumen was discarded. The stomach was incubated in 10 ml of an artificial gastric juice (100 mM HCl, 0.3% pepsin, 0.2% NaCl) containing a test compound, at 37° C. for 60 minutes. After the incubation, 2 ml of 7% trichloroacetic acid were added to 0.5 ml of medium, and the mixture was centrifuged. The amount of tyrosine in the supernatant was measured by using Folin-Ciocelteu reagent (J. gen. Physiol., 16, 59-63(1932)), and expressed as mg tyrosine/g tissue. The protective effect of the test compound on gastric mucous membrane was estimated in terms of "the inhibition of digestion of mucous membrane" which was calculated by the following formula: [formula] (Results)

rats = assay: Acute oral toxicity in rats (Experiment 10); format: in vivo; settings: male SD-strain rats, 7 days, hydrate, 10080 min
Experimental: After male SD-strain rats (6-7 weeks old) were starved for 20 hours, a solution or suspension of a test compound in distilled water was administered orally to the rats in an amount of one ml per 100 g of body weight. After administration of the test compound, the rats were allowed free access to water and food.

[5] = 1 mg/ml in artificial gastric juice
[6] = 4 mg/ml in artificial gastric juice

Urine volume (urinary electrolytes [1]; 5 h, 2 rats per cage, control 12.3): 9.3 mL | Na/K (urinary electrolytes [1]; 5 h urine, control 5.8): 3.2 | Urine volume (urinary electrolytes [2]; 50 mg/kg p.o.): 5.2 ± 0.3 mL | Na/K ratio (urinary electrolytes [2]; 50 mg/kg p.o., * = significantly different (p < 0.01) from control): 3.7 ± 0.3
Structure (SMILES): CC1(C)[C@@H](OC(=O)CCC(=O)O)CC[C@]2(C)[C@H]3C(=O)C=C4[C@@H]5C[C@@](C)(C(=O)O)CC[C@]5(C)CC[C@@]4(C)[C@]3(C)CC[C@@H]12 [Carbenoxolone disodium salt, 3-β-hydroxy-11-oxoolean-12-en-30-oic acid hydrogen succinate, reference compound]
Preventive effect on Shay rat ulcers (Shay rat ulcers; 300 mg/kg oral): 40% | protection from experimentally-induced gastric ulceration [3]: known to protect animals from experimentally-induced gastric ulceration | gastric anti-ulcer effect in human gastric ulcer patients (human gastric ulcer): effective gastric anti-ulcer agent | aldosterone-like side effect [4]: has an aldosterone-like side effect

Structure (SMILES): CC(C)c1cc2c(cc1S(=O)(=O)O)[C@@]1(C)CCC[C@@](C)(C(=O)O)[C@@H]1CC2 [Sulfodehydroabietic acid disodium salt, 1,4a-dimethyl-1-carboxy-6-sulfo-7-isopropyl-1,2,3,4,4a,9,10,10a-octahydro-phenanthrene disodium salt 81/2 hydrate]
Decrease (%) in pepsin concentration (pepsin secretion): 92% | Decrease (%) in acidity of gastric juice (gastric acid secretion): 54% | Preventive effect on Shay rat ulcers (Shay rat ulcers; 200 mg/kg oral, hydrate): 93% | decrease in the number of stress-induced ulcers (stress-induced ulcers): 22% | Preventive effect on aspirin-induced ulcers (aspirin-induced ulcers): 82% | Alcian blue binding (gastric mucus secretion; control (water) 198.5 ± 6.4): 247.7 ± 18.4 μg/g tissue | Increase (%) in alcian blue binding (gastric mucus secretion): 25% | Amount of tyrosine (gastric mucous membrane; [5]): 1.64 ± 0.12 mg/g tissue | Inhibition (%) of digestion of mucous membrane (gastric mucous membrane; [5]): 32% | Amount of tyrosine (gastric mucous membrane; [6]): 0.82 ± 0.07 mg/g tissue | Inhibition (%) of digestion of mucous membrane (gastric mucous membrane; [6]): 66% | Urine volume (urinary electrolytes [2]; 500 mg/kg p.o.): 4.8 ± 0.4 mL | Na/K ratio (urinary electrolytes [2]; 500 mg/kg p.o.): 7.4 ± 1.0 | Urine volume (urinary electrolytes [2]; 1000 mg/kg p.o.): 4.3 ± 0.3 mL | Na/K ratio (urinary electrolytes [2]; 1000 mg/kg p.o.): 5.9 ± 0.4 | LD50 (rats): > 2000 mg/kg
